In patent publication US6949648B2, “Condensed pyrazole derivatives, process for producing the same and use thereof” (Takeda Pharmaceutical Company Limited, priority 2000, dated 2005):
Counter-ions that a name gives are not always drawn.

Row | Structure (SMILES) | melting point
1 | CCOc1c2ccccc2nc2c1c(C)nn2-c1ccccn1 [Example 2-16, 4-Ethoxy-3-methyl-1-(2-pyridinyl)-1H-pyrazolo[3,4-b]quinoline] | 121 to 123 °C
2 | Cc1cccnc1-n1nc(C)c2c(N)c3ccccc3nc21 [Example 2-119, 3-Methyl-1-(3-methyl-2-pyridinyl)-1H-pyrazolo[3,4-b]quinolin-4-ylamine] | 202 to 205 °C
3 | Cc1nn(-c2ccc(Cl)cn2)c2nc3ccccc3c(Cl)c12 [Example 2-113, 4-Chloro-1-(5-chloro-2-pyridinyl)-3-methyl-1H-pyrazolo[3,4-b]quinoline] | 216 to 217 °C
4 | Cc1nn(-c2ccncc2)c2[nH]c3cc(F)c(F)cc3c(=O)c12.Cl.Cl | 237 to 240 °C
5 | Cc1nn(-c2ccccn2)c2nc3cc([N+](=O)[O-])ccc3c(Cl)c12 [Example 2-57, 4-Chloro-3-methyl-7-nitro-1-(2-pyridinyl)-1H-pyrazolo[3,4-b]quinoline] | 226 to 227 °C
6 | Cc1nn(-c2ccccn2)c2[nH]c3cccc(Cl)c3c(=O)c12 [Example 2-69, 5-Chloro-3-methyl-1-(2-pyridinyl)-1,9-dihydro-4H-pyrazolo[3,4-b]quinolin-4-one] | 212 to 213 °C
7 | Cc1nn(-c2ccccn2)c2nc3ccccc3c(NC3CC3)c12.Cl | 208 to 211 °C
8 | Cc1nn(-c2ccccn2)c2ncc(C(=O)N(C)c3ccccc3)c(OCc3ccccc3)c12 [Example 1-17, 4-(Benzyloxy)-N,3-dimethyl-N-phenyl-1-(2-pyridinyl)-1H-pyrazolo[3,4-b]pyridine-5-carboxamide] | 92 to 93 °C
9 | Cc1nn(-c2ccccn2)c2nc3ccccc3c(C(N)=O)c12 [Example 2-108, 3-Methyl-1-(2-pyridinyl)-1H-pyrazolo[3,4-b]quinoline-4-carboxamide] | > 300 °C
10 | Cc1nn(-c2ccccn2)c2nc3ccccc3c(N)c12 [Example 1-35, 3-Methyl-1-(2-pyridinyl)-1H-pyrazolo[3,4-b]quinolin-4-ylamine] | 210 to 213 °C
11 | Oc1ccnc2c1cnn2-c1ccccn1 [Example 1-7, 1-(2-Pyridinyl)-1H-pyrazolo[3,4-b]pyridin-4-ol] | 192 to 194 °C
12 | Cc1cc(O)nc2c1c(C)nn2-c1ccccn1 [Example 1-23, 3,4-Dimethyl-1-(2-pyridinyl)-1H-pyrazolo[3,4-b]pyridin-6-ol] | 254 to 255 °C
13 | Cc1nn(-c2cccnc2)c2nc3ccccc3c(N)c12.Cl.Cl | 234 to 237 °C
14 | Cc1nn(-c2ccc(Cl)cn2)c2[nH]c3ccccc3c(=O)c12 [Example 2-114, 1-(5-Chloro-2-pyridinyl)-3-methyl-1,9-dihydro-4H-pyrazolo[3,4-b]quinolin-4-one] | 262 to 263 °C
15 | Cc1nn(-c2ccccn2)c2[nH]c3cc(Cl)ccc3c(=O)c12 [Example 2-74, 7-Chloro-3-methyl-1-(2-pyridinyl)-1,9-dihydro-4H-pyrazolo[3,4-b]quinolin-4-one] | 274 to 275 °C
16 | Cc1nn(-c2ccccn2)c2ncc(C(=O)Nc3ccc(F)cc3)c(O)c12 [Example 1-14, N-(4-Fluorophenyl)-4-hydroxy-3-methyl-1-(2-pyridinyl)-1H-pyrazolo[3,4-b]pyridine-5-carboxamide] | > 300 °C

Row | Structure (SMILES) | melting point
17 | Cc1nn(-c2ccccn2)c2nc3ccccc3c(N3CCOCC3)c12 [Example 2-11, 3-Methyl-4-(4-morpholinyl)-1-(2-pyridinyl)-1H-pyrazolo[3,4-b]quinoline] | 203 to 205 °C
18 | COC(=O)c1ccc2c(=O)c3c(C)nn(-c4ccccn4)c3[nH]c2c1 [Example 2-67, Methyl 3-methyl-4-oxo-1-(2-pyridinyl)-4,9-dihydro-1H-pyrazolo[3,4-b]quinoline-7-carboxylate] | 251 to 252 °C
19 | Cc1nn(-c2ccccn2)c2nc3ccccc3c(OC3CCCCC3)c12 [Example 2-22, 4-Cyclohexyloxy-3-methyl-1-(2-pyridinyl)-1H-pyrazolo[3,4-b]quinoline] | 88 to 91 °C
20 | Cc1nn(-c2ccccn2)c2[nH]c3cc(Cl)c(Cl)cc3c(=O)c12 [Example 2-76, 6,7-Dichloro-3-methyl-1-(2-pyridinyl)-1,9-dihydro-4H-pyrazolo[3,4-b]quinolin-4-one] | 303 to 304 °C
21 | CCCSc1c2ccccc2nc2c1c(C)nn2-c1ccccn1 [Example 2-27, 3-Methyl-4-(propylsulfanyl)-1-(2-pyridinyl)-1H-pyrazolo[3,4-b]quinoline] | 91 to 93 °C
22 | Cc1cccc2c(N)c3c(C)nn(-c4ccccn4)c3nc12.Cl | 283 to 286 °C
23 | Cc1nn(-c2ccccn2)c2[nH]c3cccc(C(=O)O)c3c(=O)c12 [Example 2-62, 3-Methyl-4-oxo-1-(2-pyridinyl)-4,9-dihydro-1H-pyrazolo[3,4-b]quinoline-5-carboxylic acid] | 303 to 306 °C
24 | COc1cccc(-n2nc(C)c3c(Cl)c4cccc(C)c4nc32)n1 [Example 2-126, 4-Chloro-3,8-dimethyl-1-(6-methoxy-2-pyridinyl)-1H-pyrazolo[3,4-b]quinoline] | 148 to 151 °C
25 | Cc1nn(-c2ccccn2)c2[nH]c3ccc(N)cc3c(=O)c12 [Example 2-55, 6-Amino-3-methyl-1-(2-pyridinyl)-1,9-dihydro-4H-pyrazolo[3,4-b]quinolin-4-one] | 260 to 262 °C
26 | Cc1ccc2nc3c(c(C)nn3-c3ccccn3)c(N)c2c1.Cl | 287 to 290 °C
27 | CCOc1cccc(-n2nc(C)c3c(=O)c4c(C)cccc4[nH]c32)n1 [Example 2-122, 3,5-Dimethyl-1-(6-ethoxy-2-pyridinyl)-1,9-dihydro-4H-pyrazolo[3,4-b]quinolin-4-one] | 213 to 215 °C
28 | Cc1nn(-c2ccccn2)c2nc3ccccc3c(SC(C)C)c12 [Example 2-25, 4-(Isopropylsulfanyl)-3-methyl-1-(2-pyridinyl)-1H-pyrazolo[3,4-b]quinoline] | 113 to 114 °C
29 | Cc1nn(-c2ccccn2)c2[nH]c3ccc([S+](C)[O-])cc3c(=O)c12 (stereo not shown) [Example 2-51, 3-Methyl-6-(methylsulfinyl)-1-(2-pyridinyl)-1,9-dihydro-4H-pyrazolo[3,4-b]quinolin-4-one] | 268 to 269 °C
30 | Cc1nn(-c2ccccn2)c2[nH]c3ccc([N+](=O)[O-])cc3c(=O)c12 [Example 2-54, 3-Methyl-6-nitro-1-(2-pyridinyl)-1,9-dihydro-4H-pyrazolo[3,4-b]quinolin-4-one] | > 300 °C
31 | Cc1nn(-c2ccccn2)c2c1c(=O)c1ccccc1n2C [Example 2-14, 3,9-Dimethyl-1-(2-pyridinyl)-1,9-dihydro-4H-pyrazolo[3,4-b]quinolin-4-one] | 192 to 193 °C

Now from value to compound:

Row | melting point | Structure (SMILES)
32 | > 300 °C | O=c1c2cc(F)c(F)cc2[nH]c2c1cnn2-c1ccccn1 [Example 2-199, 6,7-Difluoro-1-(2-pyridinyl)-1,9-dihydro-4H-pyrazolo[3,4-b]quinolin-4-one]
33 | 237 to 240 °C | O=c1c2ccccc2[nH]c2c1c(-c1ccccc1)nn2-c1ccccn1 [Example 2-182, 3-Phenyl-1-(2-pyridinyl)-1,9-dihydro-4H-pyrazolo[3,4-b]quinolin-4-one]
34 | 302 to 305 °C | NC(=O)Cc1nn(-c2ccccn2)c2[nH]c3ccccc3c(=O)c12 [Example 2-178, 2-[4-Oxo-1-(2-pyridinyl)-4,9-dihydro-1H-pyrazolo[3,4-b]quinolin-3-yl]acetamide]
35 | 301 to 302 °C | Cc1cccc(-n2nc(C)c3c(=O)c4cc(F)c(F)cc4[nH]c32)n1 [Example 2-209, 6,7-Difluoro-3-methyl-1-(6-methyl-2-pyridinyl)-1,9-dihydro-4H-pyrazolo[3,4-b]quinolin-4-one]
36 | 228 to 229 °C | Cc1nn(-c2ccccn2)c2[nH]c3ccsc3c(=O)c12 [Example 2-156, 3-Methyl-1-(2-pyridinyl)-1,8-dihydro-4H-pyrazolo[3,4-b]thieno[2,3-e]pyridin-4-one]
37 | 146 to 148 °C | CC(C)c1nn(-c2ccccn2)c2nc3ccccc3c(Cl)c12 [Example 2-172, 4-Chloro-3-isopropyl-1-(2-pyridinyl)-1H-pyrazolo[3,4-b]quinoline]
38 | 257 to 260 °C | Cc1nn(-c2ncccn2)c2nc3ccccc3c(Cl)c12 [Example 2-144, 4-Chloro-3-methyl-1-(2-pyrimidinyl)-1H-pyrazolo[3,4-b]quinoline]
39 | 263 to 266 °C | O=c1c2cc(F)ccc2[nH]c2c1cnn2-c1ccccn1 (as salt: salt) [Example 2-165, 6-Fluoro-1-(2-pyridinyl)-1,9-dihydro-4H-pyrazolo[3,4-b]quinolin-4-one]
40 | 239 to 241 °C | CCOc1cccc(-n2nc(C)c3c(=O)c4cccc(C)c4[nH]c32)n1 [Example 2-130, 3,8-Dimethyl-1-(6-ethoxy-2-pyridinyl)-1,9-dihydro-4H-pyrazolo[3,4-b]quinolin-4-one]
41 | 176 to 179 °C | Fc1ccc2nc3c(cnn3-c3ccccn3)c(Cl)c2c1 [Example 2-164, 4-Chloro-6-fluoro-1-(2-pyridinyl)-1H-pyrazolo[3,4-b]quinoline]
42 | 111 to 113 °C | COc1c2ccccc2nc2c1c(C)nn2Cc1ccccn1 [Example 2-190, 4-Methoxy-3-methyl-1-(2-pyridinylmethyl)-1H-pyrazolo[3,4-b]quinoline]
43 | 277 to 280 °C | Cc1nn(Cc2ccncc2)c2[nH]c3ccccc3c(=O)c12 [Example 2-192, 3-Methyl-1-(4-pyridinylmethyl)-1,9-dihydro-4H-pyrazolo[3,4-b]quinolin-4-one]
44 | 197 to 199 °C | COc1ccc(-c2nn(-c3ccccn3)c3[nH]c4ccccc4c(=O)c23)cc1 [Example 2-185, 3-(4-Methoxyphenyl)-1-(2-pyridinyl)-1,9-dihydro-4H-pyrazolo[3,4-b]quinolin-4-one]
45 | 247 to 248 °C | CCc1nn(-c2ccccn2)c2[nH]c3cc(F)c(F)cc3c(=O)c12 [Example 2-201, 3-Ethyl-6,7-difluoro-1-(2-pyridinyl)-1,9-dihydro-4H-pyrazolo[3,4-b]quinolin-4-one]
46 | 285 to 288 °C | Cc1nn(Cc2cccnc2)c2[nH]c3ccccc3c(=O)c12 [Example 2-191, 3-Methyl-1-(3-pyridinylmethyl)-1,9-dihydro-4H-pyrazolo[3,4-b]quinolin-4-one]
